The values that follow come from US9872875B2, “Component and method for treating viral disease” (Institut Pasteur of Shanghai, Chinese Academy of Sciences, priority 2012, dated 2018).

The target of one assay is P2X5 receptor (Homo sapiens, UniProt Q93086). Particulars: Table 8, antagonists; cited from earlier work.
The test system of assay [1] is EV71 clinical isolate (EV71 FY 573). Description: EV71 clinical isolate replication in RD cells, viral load by quantitative RT-PCR. The format is cell-based, Enterovirus 71. Here is the method:
RD cells were infected with EV71 clinical isolate (EV71 FY 573) in different E02 concentrations, at the MOI (multiplicity of infection) of 0.1. At 46 h post infection, viral RNA in culture supernatant was extracted, and the relative EV71 viral load was determined by quantitative RT-PCR. Procedures are detailed as follows:
(1) Cell seeding: 24 h prior to infection, RD cells were seeded in 96-well cell culture plates, 5×10^4 cells per well.
(2) Infection: • a. Virus pre-incubated with drug: virus stock solution was diluted to 5×10^4 TCID50/ml with DMEM and dispensed to 96-well plates at 100 μl per well, and 11 μl of E02 dissolved in DMEM at corresponding concentration or DMEM was added, and incubated at 37° C. for 1 h; • b. Cells pre-incubated with drug: cell culture medium was removed from 96-well plates, each well was added 100 μl of DMEM, then added 11 μl of E02 solution at corresponding concentration or DMEM, and incubated at 37° C. for 1 h; • c. After 1 h incubation, drug was discarded from cell culture plates, 111 μl of virus pre-incubated with drug was transferred to cell culture plates, and incubated at 37° C. for 1 h; • d. After incubation, the supernatant was discarded, cells were washed twice with 50 μl of DMEM, each well was added 180 μl of DMEM containing 2% FBS, 20 μl of E02 solution at corresponding concentration or DMEM. Cell culture plates were placed in 37° C., 5% (v/v) carbon dioxide incubator for incubation.
(3) Harvesting virus and RNA extraction: after infection, cells were cultured for 46 h, 140 μl of supernatant was transferred to 96-deep well plates, viral RNA extraction was performed using viral RNA extraction kit (QIAGEN QIAamp Viral RNA Mini Kit, cat #52906) according to standard operating procedures of the kit.
(4) Viral load measurements: EV71 5′UTR gene was detected using ABI Taqman one-step RT-PCR kit (ABI TaqMan® One-Step RT-PCR, cat #4309169) of ABI 7900HT 384-well plates PCR system. EV71 5′UTR quantitative RT-PCR thermal cycling program (Taqman);
(5) PCR CT values were converted to viral load using PCR standard curves (standard curves were obtained by CT values determined by performing RT-PCR on RNA extracted from viruses serially diluted with defined titers at 10-fold).

For a further assay, the target named is T1, P2X2 receptor (Homo sapiens, UniProt Q9UBL9).
T1 sequence (Q9UBL9 1-471): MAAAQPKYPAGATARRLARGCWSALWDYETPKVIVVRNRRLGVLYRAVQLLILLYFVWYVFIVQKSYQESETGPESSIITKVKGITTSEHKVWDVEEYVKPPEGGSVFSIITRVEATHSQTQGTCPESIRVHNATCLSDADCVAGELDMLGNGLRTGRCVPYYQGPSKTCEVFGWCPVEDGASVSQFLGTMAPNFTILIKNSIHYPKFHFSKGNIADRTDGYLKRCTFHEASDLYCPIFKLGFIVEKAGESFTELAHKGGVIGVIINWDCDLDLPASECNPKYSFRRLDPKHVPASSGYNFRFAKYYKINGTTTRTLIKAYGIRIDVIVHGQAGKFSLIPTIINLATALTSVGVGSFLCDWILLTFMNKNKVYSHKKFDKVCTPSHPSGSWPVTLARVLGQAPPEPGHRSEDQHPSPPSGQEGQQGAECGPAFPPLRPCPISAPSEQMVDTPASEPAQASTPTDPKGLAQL
The conditions noted are these: cited from earlier work.

Assay [2] concerns EV71 clinical isolate SH-TS. Description: EV71 SH-TS PFU in RD cells. Particulars: Enterovirus A, 168 h, 5~7 days, read-out: EC50 to reduce EV71 SH-TS PFU in RD cells. The class given is cell-based, Enterovirus 71. Here is the method:
(§1) RD cells cultured in 12-well plates were infected with EV71 SH-TS or SH-RS at different E02 concentrations. After cultured for 5˜7 days, cells were stained and plaque-forming units were calculated. Same procedure is as detailed in “3. E02 reduces EV71 plaque forming units in RD cells” of Example 1.

For assay [3], the system named is EV71 clinical isolate SH-TS. Description: EV71 SH-TS replication in RD cells, quantitative RT-PCR. The class given is cell-based, Enterovirus 71. Particulars: MOI 0.1, 46 h. Here is the method: RD cells were infected with EV71 SH-TS or SH-RS at different E02 concentrations, at the MOI of 0.1. After cultured for 46 h, viral RNA in culture supernatant was extracted. Relative EV71 viral load was determined by quantitative RT-PCR. See Example 1 for specific procedures of quantitative RT-PCR.

For assay [4], the system named is EV71 clinical isolate (EV71 FY 573). Description: EV71 infection in ICR newborn mice, serum viral load. The class given is in vivo. Particulars: 50 mg/kg E02 intraperitoneally; 5 days after infection; infection group average 15.0. Here is the method:
EV71 clinical isolate (EV71 FY 573) was used to infect three-day-old newborn ICR mice to test E02's efficacy to inhibit EV71 in vivo. Test mice were divided into three groups: drug group, infection group, and placebo group. When mice were two-day-old, drug group were intraperitoneally injected with 50 μl of E02 at a dose of 50 mg/kg. Infection group and placebo group were intraperitoneally injected with 50 μl of DMEM. When three-day-old, drug group was intraperitoneally injected with a mixture (50 μl) of E02 at a dose of 50 mg/kg and EV71 clinical isolate at a dose of 5×10^7 TCID50. Infection group was injected with a mixture of 5×10^7 TCID50 viruses (25 μl) and 25 μl of DMEM. Placebo group was injected with 50 μl of DMEM.
5 days after infection, blood was collected and serum was separated. Viral RNA in serum was extracted (viral RNA extraction kit, QIAGEN QIAamp Viral RNA Mini Kit, cat #52906). Copies of EV71 5′UTR gene and GAPDH gene were detected using one-step real-time quantitative RT-PCR kit (QIAGEN QuantiTect SYBR Green RT-PCR Kit) in ABI 7900HT 384-well plates PCR system.

The subject of assay [5] is EV71 clinical isolate SH-RS. Description: EV71 SH-RS PFU in RD cells. The format is cell-based, Enterovirus 71. The conditions noted are these: Enterovirus A, 168 h, 5~7 days, read-out: EC50 to reduce EV71 SH-RS PFU in RD cells. Here is the method: as §1

Where two headings read alike, the source gives them in different places.

Chain of P2X5 receptor (Q93086 whole entry): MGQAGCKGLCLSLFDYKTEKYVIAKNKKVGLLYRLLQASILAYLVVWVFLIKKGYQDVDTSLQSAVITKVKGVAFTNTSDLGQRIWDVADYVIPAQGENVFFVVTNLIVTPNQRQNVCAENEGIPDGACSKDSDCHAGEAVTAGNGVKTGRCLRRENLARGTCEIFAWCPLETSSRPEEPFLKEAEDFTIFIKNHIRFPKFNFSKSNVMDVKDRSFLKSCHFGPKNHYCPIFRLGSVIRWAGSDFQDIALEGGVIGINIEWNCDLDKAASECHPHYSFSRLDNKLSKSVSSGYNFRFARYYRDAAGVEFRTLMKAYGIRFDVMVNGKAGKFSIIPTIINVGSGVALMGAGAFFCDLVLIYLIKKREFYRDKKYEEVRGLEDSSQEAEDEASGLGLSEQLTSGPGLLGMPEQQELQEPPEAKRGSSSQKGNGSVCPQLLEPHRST

Consider `Cc1nc(N=Nc2ccc(S(=O)(=O)O)cc2S(=O)(=O)O)c(COP(=O)(O)O)c(C=O)c1O` [PPADS, pyridoxal-phosphate-6-azophenyl-2′, 4′-disulphonic acid], for which, on P2X5 receptor, the “P2X receptors 5” value is recorded as “++ (++: inhibitory concentration = 10~300 nM)”. For the same compound, the EC50 in assay [1] (EV71 FY 573, MOI 0.1, 46 h, viral RNA in supernatant, read-out: EC50 (50% effective concentration) for inhibiting EV71 replication in RD cells) turned out to be 18.9 µM. The “P2X receptors 2” value on P2X2 receptor (Table 8, antagonists) was “++ (++: inhibitory concentration = 10~300 nM)”.
With `Cc1ccc(C(=O)Nc2ccc(S(=O)(=O)O)c3cc(S(=O)(=O)O)cc(S(=O)(=O)O)c23)cc1NC(=O)c1cccc(NC(=O)Nc2cccc(C(=O)Nc3cc(C(=O)Nc4ccc(S(=O)(=O)O)c5cc(S(=O)(=O)O)cc(S(=O)(=O)O)c45)ccc3C)c2)c1` [E02, Suramin Sodium], in assay [2], the EC50 is 2240 nM. Besides, in assay [3], the “concentration reducing EV71 replication by 10-fold” value is listed as 7.14 μM and the “concentration reducing EV71 replication by 100-fold” value was determined as 25.35 µM. Also, the “RNA loading ratio between EV71 and GAPDH in serum, average value of drug group” value in assay [4] worked out at 1.8. For the same compound, at P2X5 receptor, the “P2X receptors 5” value is “++ (++: inhibitory concentration = 10~300 nM)”. Besides, the EC50 in assay [5] was found to be 3.47 µM. Moreover, in assay [1] (EV71 FY 573, RD cells, 46 h), the “concentration at which EV71 replication is reduced 10-fold” value was found to be 3.44 μM, the “concentration at which EV71 replication is reduced 100-fold” value was 5.19 µM, the “concentration at which EV71 replication is reduced 1,000-fold” value came out at 6.45 µM and the “concentration at which EV71 replication is reduced 10,000-fold” value was found to be 7.63 µM. The EC50 in assay [1] (Enterovirus A, EV71, RD, 46 h, read-out: EC50 (50% effective concentration) for inhibiting EV71 replication in RD cells) stood at 6.93 µM. For the same compound, the EC50 in assay [1] (Enterovirus A, EV71, RD cells, summary over RT-PCR, TCID50 and PFU tests, read-out: EC50 that inhibits EV71 clinical isolate (summary of Examples 1-3)) is less than 6.93 µM. Further, the “P2X receptors 2” value on P2X2 receptor was “+ (key: −: no activity; +: inhibitory concentration >300 nM; ++: inhibitory concentration = 10~300 nM; +++: inhibitory concentration <10 nM)”.
